Assay results taken from US8043823B2, “Methods of identifying agonists and antagonists of hTASR bitter taste receptors” (Deutsches Institut fuer Ernaehrungsforschung, priority 2007, dated 2011).

Legend:
Type in all cases: cell-based
TAS2R46 = target: T1, TAS2R46 (Homo sapiens, UniProt P59540); assay: FLIPR calcium imaging of HEK-293T Gα16gust44 cells transiently expressing TAS2R46; settings: intracellular calcium response
T1 construct: expressed in transfected cells; host or cells: HEK-293T cells stably expressing Gα16gust44
T1 sequence (P59540 with tags, fused parts or gaps): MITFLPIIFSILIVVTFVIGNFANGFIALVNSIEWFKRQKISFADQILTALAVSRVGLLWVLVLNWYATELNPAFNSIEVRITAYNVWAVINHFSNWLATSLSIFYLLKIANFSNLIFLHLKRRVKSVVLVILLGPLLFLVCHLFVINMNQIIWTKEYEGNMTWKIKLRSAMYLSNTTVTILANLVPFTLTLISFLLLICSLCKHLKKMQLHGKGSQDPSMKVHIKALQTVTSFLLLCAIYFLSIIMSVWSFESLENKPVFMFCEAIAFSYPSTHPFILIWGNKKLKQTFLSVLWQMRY
Description: (§1) Functional expression. Human TAS2R cDNA constructs were used that encoded a plasma membrane-targeting sequence of the rat somatostatin type 3 receptor at the N-terminus of the recombinant polypeptide and a herpes simplex virus glycoprotein D (HSV) epitope at its C-terminus (Bufe et al., 2002). The constructs were transiently transfected into HEK-293T cells that stably express the chimeric G-protein subunit Gα16gust44 using Lipofectamine 2000 (Invitrogen, San Diego, Calif.) in 96-well microtiter plates. Calcium imaging experiments using an automated fluorometric imaging plate reader (FLIPR) (Molecular Devices, Munich, Germany) have been performed 24-32 h later essentially as described previously (Bufe et al., 2002). Tastants (Sigma-Aldrich, Taufkirchen, Germany) were dissolved and administered in the following (in mM): 130 NaCl, 5 KCl, 10 HEPES, 2 CaCl2, and 10 mM glucose, pH7.4. Data were collected from 1-2 independent experiments performed at least in triplicate and processed with SigmaPlot (SPSS, Chicago, Ill.). For dose-response curve calculation, the peak fluorescence responses after compound addition were corrected for and normalized to background fluorescence (ΔF/F=(F−F0)/F0), and baseline noise was subtracted. […]

TAS2R47 = target: T2, TAS2R47 (Homo sapiens, UniProt P59541); assay: FLIPR calcium imaging of HEK-293T Gα16gust44 cells transiently expressing TAS2R47
T2 construct: expressed in transfected cells; host or cells: HEK-293T cells stably expressing Gα16gust44
T2 sequence (P59541 1-319): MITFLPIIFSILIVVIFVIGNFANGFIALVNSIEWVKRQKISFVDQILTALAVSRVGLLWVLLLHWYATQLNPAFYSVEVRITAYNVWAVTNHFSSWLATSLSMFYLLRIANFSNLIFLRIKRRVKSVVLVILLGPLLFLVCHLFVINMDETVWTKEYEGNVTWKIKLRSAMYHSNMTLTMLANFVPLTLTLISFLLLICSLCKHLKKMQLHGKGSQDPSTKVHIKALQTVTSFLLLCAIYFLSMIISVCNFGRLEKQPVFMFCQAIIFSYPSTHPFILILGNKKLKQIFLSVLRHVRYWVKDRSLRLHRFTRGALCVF
Description: as §1

TAS2R50 = target: T3, TAS2R50 (Homo sapiens, UniProt P59544, C203Y); assay: FLIPR calcium imaging of HEK-293T Gα16gust44 cells transiently expressing TAS2R50
T3 construct: expressed in transfected cells; host or cells: HEK-293T cells stably expressing Gα16gust44
T3 sequence (P59544 1-299 C203Y): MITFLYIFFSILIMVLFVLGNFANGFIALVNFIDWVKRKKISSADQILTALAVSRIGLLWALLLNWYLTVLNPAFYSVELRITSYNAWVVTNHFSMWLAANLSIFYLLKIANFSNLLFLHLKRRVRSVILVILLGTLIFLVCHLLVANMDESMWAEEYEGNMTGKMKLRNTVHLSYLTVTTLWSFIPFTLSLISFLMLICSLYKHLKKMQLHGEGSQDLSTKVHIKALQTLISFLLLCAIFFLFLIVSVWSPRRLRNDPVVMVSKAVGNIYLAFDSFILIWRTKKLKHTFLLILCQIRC
Description: as §1

Row | Structure (SMILES) | concentration to which TAS2R46-expressing cells already responded (TAS2R46) [µM] | concentration at which TAS2R47-expressing HEK293 cells responded (TAS2R47; intracellular calcium response, 30 μM or higher) [µM] | EC50 (TAS2R50; dose-response curve on TAS2R50, FIG. 2, one experiment in triplicate) [µM] | response of TAS2R50 in FLIPR calcium imaging (TAS2R50; result in words) | molar range at which TAS2R47 responded (TAS2R47; Table 1, assay similar to Example 1) [mM]
1 | C=C1CC[C@@H]2[C@](C)(CO)[C@H](O)CC[C@@]2(C)[C@@H]1C/C=C1/C(=O)OC[C@H]1O [andrographolide] | 3 | ≥ 30 | 5.6 | low micromolar range | –
2 | CC12CCC(CC1=O)C2(C)C (centres unmarked) [Camphor, camphor] | – | – | – | – | 0.3
